Laboratory results as given in ChEMBL document CHEMBL1201862, “PubChem BioAssay data set” (2004).
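Five concentrations, 48 hours, 96-well plates. GI50 = concentration required for 50% inhibition of growth.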 Active and inactive are the calls of the source. Cut-off read from the data, not from the text of the source: active = GI50 up to about 1.1 µM and inactive = higher.

Key:
Test in all cases: NCI tumour cell line growth inhibition, 48 h
A498 = test system: A498
A549 = test system: A549
DMS-273 = test system: DMS-273
HCC 2998 = test system: HCC 2998
HCT-116 = test system: HCT-116
HT-29 = test system: HT-29
KM12 = test system: KM12
M19-MEL = test system: M19-MEL
NCI-H226 = test system: NCI-H226
NCI-H23 = test system: NCI-H23
NCI-H460 = test system: NCI-H460
SK-MEL-28 = test system: SK-MEL-28
SK-OV-3 = test system: SK-OV-3
SNB-19 = test system: SNB-19
U-251 = test system: U-251
UACC-257 = test system: UACC-257
UACC-62 = test system: UACC-62
SW-620 = test system: SW-620
HOP-62 = test system: HOP-62
OVCAR-5 = test system: OVCAR-5

Measured: GI50

O=C(NN1C(=O)C(Cl)C1c1cccc(O)c1)c1ccccc1O (stereo not drawn)
inactive: A498 > 100 µM | A549 > 100 µM | DMS-273 > 100 µM | HCC 2998 > 100 µM | HCT-116 > 100 µM | HT-29 > 100 µM | KM12 > 100 µM | M19-MEL > 100 µM | NCI-H226 > 100 µM | NCI-H23 > 100 µM | NCI-H460 > 100 µM | SK-MEL-28 > 100 µM | SK-OV-3 > 100 µM | SNB-19 > 100 µM | U-251 > 100 µM | UACC-257 > 100 µM | UACC-62 > 100 µM

COc1cc2c(cc1OC)C(Cl)C(c1ccc(Cl)c(Cl)c1)=C2Cl (stereo not drawn)
inactive: A498 16.9 µM | DMS-273 3.86 µM | HT-29 4.38 µM | M19-MEL 9.02 µM | NCI-H226 8.99 µM | NCI-H23 44.6 µM | NCI-H460 4.09 µM | SK-MEL-28 12 µM | SK-OV-3 15.5 µM | SNB-19 15.6 µM | SW-620 6.18 µM | U-251 4.71 µM | UACC-62 4.37 µM

COc1ccc(C2SCC(=O)N2NC(=O)c2ccncc2)cc1F (stereo not drawn)
inactive: A498 > 100 µM | A549 > 100 µM | DMS-273 > 100 µM | HCC 2998 > 100 µM | HCT-116 > 100 µM | HOP-62 > 100 µM | HT-29 > 100 µM | KM12 > 100 µM | NCI-H226 > 100 µM | NCI-H23 > 100 µM | NCI-H460 > 100 µM | OVCAR-5 > 100 µM | SK-MEL-28 > 100 µM | SK-OV-3 > 100 µM | SNB-19 > 100 µM | SW-620 > 100 µM | U-251 > 100 µM | UACC-257 > 100 µM

NC(=O)N/C=C1\C(=O)Oc2ccccc2C1=O
inactive: A549 10 µM | DMS-273 > 100 µM | HCC 2998 > 100 µM | HCT-116 > 100 µM | HOP-62 > 100 µM | HT-29 > 100 µM | KM12 > 100 µM | NCI-H226 > 100 µM | NCI-H23 > 100 µM | NCI-H460 > 100 µM | OVCAR-5 35.3 µM | SK-MEL-28 73.5 µM | SNB-19 82.8 µM | SW-620 > 100 µM | UACC-257 89.9 µM | UACC-62 77.8 µM

COc1ccc(C2c3cc4c(cc3OC(O)(CO)C2C(=O)O)OCO4)cc1.COc1ccc(C2c3cc4c(cc3OC3(O)COC(=O)C23)OCO4)cc1 (stereo not drawn)
inactive: A498 89.3 µM | A549 36.2 µM | DMS-273 4.14 µM | HCC 2998 20.2 µM | HCT-116 18.2 µM | HOP-62 33.7 µM | HT-29 24.7 µM | KM12 28.2 µM | M19-MEL 4.6 µM | NCI-H226 22.5 µM | NCI-H23 23.4 µM | NCI-H460 19.1 µM | OVCAR-5 39.4 µM | SK-MEL-28 25.2 µM | SK-OV-3 40.1 µM | SW-620 18.7 µM | U-251 19.8 µM | UACC-257 21.5 µM | UACC-62 17.7 µM
